The first test has as its target T1, Prostaglandin D2 receptor 2 (Homo sapiens, UniProt Q9Y5Y4).
T1 sequence (Q9Y5Y4 whole entry): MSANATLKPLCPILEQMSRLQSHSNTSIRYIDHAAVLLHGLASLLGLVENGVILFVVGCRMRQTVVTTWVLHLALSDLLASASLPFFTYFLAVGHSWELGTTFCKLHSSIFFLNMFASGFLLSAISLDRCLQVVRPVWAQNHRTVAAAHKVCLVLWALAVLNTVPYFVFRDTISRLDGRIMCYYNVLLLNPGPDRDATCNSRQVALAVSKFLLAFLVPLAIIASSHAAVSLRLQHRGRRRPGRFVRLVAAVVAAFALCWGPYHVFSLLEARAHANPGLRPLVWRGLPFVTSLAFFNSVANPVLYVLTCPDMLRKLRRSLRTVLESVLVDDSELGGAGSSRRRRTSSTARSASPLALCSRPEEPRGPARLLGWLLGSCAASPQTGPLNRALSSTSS
Assay: not given
With `O=C(O)CCC(=O)N(C1CC1)C1c2ccccc2N(C(=O)OCc2ccccc2)C2CCCCC21` (racemic), the IC50 is 175 nM. This lies in the sub-micromolar range. On the same count and under the same terms, with `CCN(C(C)=O)[C@H]1c2ccccc2N(C(=O)c2ccccc2)[C@H]2CCC[C@@H]12` the figure was 1840 nM.

For a further test, the target named is T1, Prostaglandin D2 receptor 2. Put plainly: biochemical.
Description: Displacement of [3H]PGD2 from human CRTh2 expressed in HEK cell membranes after 60 mins by scintillation counting method
Compound `CC(C)(CC(=O)N(C1CC1)[C@H]1c2ccccc2N(C(=O)OCc2ccccc2)[C@H]2CCC[C@H]21)C(=O)O` had an inhibition constant Ki of 7800 nM. This lies in the single-digit micromolar range. On the same count and under the same terms, with `C[C@H](CC(=O)N(C1CC1)[C@H]1c2ccccc2N(C(=O)OCc2ccccc2)[C@H]2CCC[C@H]21)C(=O)O` the figure was 82 nM; with `O=C(O)CCC(=O)N(CCC(F)(F)F)[C@H]1c2ccccc2N(C(=O)c2ccc(OC(F)(F)F)cc2)[C@H]2CCCC12` (single isomer, unassigned), 35 nM; with `O=C(O)CCC(=O)N(C1CCC1)[C@H]1c2ccccc2N(C(=O)c2ccc(OC(F)(F)F)cc2)[C@H]2CCCC21` (single isomer, unassigned), 8.6 nM. On to `O=C(O)CCCC(=O)N(C1CC1)C1c2ccccc2N(C(=O)OCc2ccccc2)C2CCCC21` (racemic), for which the Ki was 1490 nM.

With `O=C(O)CCC(=O)N(C1CC1)[C@H]1c2ccccc2N(C(=O)Nc2ccccc2)[C@H]2CCC[C@H]21`, the affinity, expressed as Ki, was 56 nM. Still for that read-out and setting: under `CN(C(=O)CCC(=O)O)[C@H]1c2ccccc2N(C(=O)c2ccc(OC(F)(F)F)cc2)[C@H]2CCCC12` (single isomer, unassigned) stands 16 nM; under `CC(C)N(C(=O)CCC(=O)O)[C@H]1c2ccccc2N(C(=O)c2ccc(OC(F)(F)F)cc2)[C@H]2CCCC21` (single isomer, unassigned), 50 nM.

`O=C(O)CCC(=O)N(C1CC1)[C@H]1c2cc(-c3cncnc3)ccc2N(C(=O)c2ccc(OC(F)(F)F)cc2)[C@H]2CCC[C@H]21` registered a Ki of 300 nM. Against the preceding compound, the Ki is about 6-fold higher. Same read-out and setting: under `O=C(O)CCC(=O)N(C1CC1)C1c2ccccc2N(C(=O)OCc2ccccc2)C2CCCCC21` (racemic) stands 32 nM; under `CCc1ccc2c(c1)[C@H](N(C(=O)CCC(=O)O)C1CC1)[C@@H]1CCC[C@@H]1N2C(=O)c1ccc(OC(F)(F)F)cc1`, 31 nM.

For the compound `CCN(C(C)=O)[C@H]1c2ccccc2N(C(=O)c2ccccc2)[C@H]2CCC[C@@H]12`, affinity was put at a Ki of 26 nM. Consider `CC1(N(C(=O)CCC(=O)O)[C@H]2c3ccccc3N(C(=O)c3ccc(OC(F)(F)F)cc3)[C@H]3CCCC32)CC1` (single isomer, unassigned), for which the Ki was 64 nM.

In turn, `O=C(O)c1ccccc1C(=O)N(C1CC1)[C@H]1c2ccccc2N(C(=O)c2ccc(OC(F)(F)F)cc2)[C@H]2CCC[C@H]21` had a Ki of 840 nM. `O=C(O)CCC(=O)N(CC1CCC1)[C@H]1c2ccccc2N(C(=O)c2ccc(OC(F)(F)F)cc2)[C@H]2CCCC12` (single isomer, unassigned) showed an inhibitory constant (Ki) of 9 nM. Still for that read-out and setting: under `CCN(C(=O)CCC(=O)O)[C@H]1c2ccccc2N(C(=O)c2ccc(OC(F)(F)F)cc2)[C@H]2CCCC12` (single isomer, unassigned) stands 12 nM. Same read-out and setting: with `O=C(O)CCC(=O)N(C1CC1)[C@H]1c2cc(C3CC3)ccc2N(C(=O)c2ccc(OC(F)(F)F)cc2)[C@H]2CCC[C@H]21` the figure was 43 nM; with `O=C(O)CCC(=O)N(C1CC1)[C@H]1c2cc(C(F)F)ccc2N(C(=O)c2ccc(OC(F)(F)F)cc2)[C@H]2CCC[C@H]21`, 14 nM. The same measure, in the same setting: under `O=C(O)CCC(=O)N(C1CC1)[C@H]1c2cc(-c3ccc(F)cc3)ccc2N(C(=O)c2ccc(OC(F)(F)F)cc2)[C@H]2CCC[C@H]21` stands 110 nM; under `O=C(O)CCC(=O)N(C1CC1)[C@H]1c2ccccc2N(CC(=O)Nc2ccc(F)cc2)[C@H]2CCC[C@H]21`, 660 nM. On to `O=C(O)CCC(=O)N(C1CC1)[C@H]1c2ccccc2N(c2nnc(-c3ccccc3)o2)[C@H]2CCC[C@H]21`, for which the inhibition constant (Ki) came out at 28 nM. Against the preceding compound, the Ki is about 24-fold lower.

Compound `CC(CC(=O)N(C1CC1)[C@H]1c2ccccc2N(C(=O)OCc2ccccc2)[C@H]2CCC[C@H]21)C(=O)O` (stereo partly specified) came in with a Ki of 510 nM. The same measure, in the same setting: under `O=C(O)COC(=O)N(C1CC1)C1c2ccccc2N(C(=O)c2ccccc2)C2CCCC21` (racemic) stands 9.4 nM. Same read-out and setting: under `O=C(c1ccc(OC(F)(F)F)cc1)N1c2ccccc2[C@H](N(C(=O)CCc2nn[nH]n2)C2CC2)[C@@H]2CCC[C@@H]21` stands 98 nM.

By IC50 is commonly meant the concentration at which inhibition is half-maximal. A higher IC50 goes with a need for much substance. As a reminder, the Ki is the dissociation constant of the complex between target and ligand, obtained from inhibition or displacement.
